The record followed here is patent publication US20250270209A1 (INTERLINE THERAPEUTICS, INC., priority 2022, published 2025).

SMILES strings stand for the structures.

In assay [1] the target is LRRK2 wild type enzyme (Homo sapiens, UniProt Q5S007). The experiment in a line: Biochemical Assay: LRRK2 TR-FRET (LanthaScreen) kinase assay with LRRKtide substrate. The conditions noted are these: LRRK2 Inhibition, Table 8. In outline:
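Human wild-type LRRK2 (3 nM) preincubated 15 min with compound (11-point, 3-fold, top 10 μM), then reacted 120 min at 23 °C with 400 nM LRRKtide and 25 μM ATP, pH 8.0. Stopped with EDTA; Tb-anti-pLRRKtide TR-FRET read after 30 min.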

Assay [2] deals with T1, wild type LRRK2 overexpressed in recombinant HEK-293T cells (Homo sapiens, UniProt Q5S007).
T1 construct: host or cells: HEK293T (transient transfection with pCMV-LRRK2 WT plasmid)
The assay is described as follows: pS935 LRRK2 Cell Assay (HTRF, phospho-LRRK2 Ser935). The format is cell-based. Conditions: LRRK2 Inhibition, Table 8, 2 hours compound incubation. In outline:
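HEK-293T cells transiently transfected with wild-type LRRK2 for 24 h, plated overnight, then treated 2 h at 37° C with compound (top 10 μM, 3-fold, 9 doses, duplicates, 0.2% DMSO). Lysates probed overnight at 23° C by sandwich HTRF for pSer935; 665/615 nm ratio read.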
On the technique in general: In TR-FRET formats the signal depends on donor and acceptor labels being close together.

Sequence of LRRK2 wild type enzyme (Q5S007 whole entry): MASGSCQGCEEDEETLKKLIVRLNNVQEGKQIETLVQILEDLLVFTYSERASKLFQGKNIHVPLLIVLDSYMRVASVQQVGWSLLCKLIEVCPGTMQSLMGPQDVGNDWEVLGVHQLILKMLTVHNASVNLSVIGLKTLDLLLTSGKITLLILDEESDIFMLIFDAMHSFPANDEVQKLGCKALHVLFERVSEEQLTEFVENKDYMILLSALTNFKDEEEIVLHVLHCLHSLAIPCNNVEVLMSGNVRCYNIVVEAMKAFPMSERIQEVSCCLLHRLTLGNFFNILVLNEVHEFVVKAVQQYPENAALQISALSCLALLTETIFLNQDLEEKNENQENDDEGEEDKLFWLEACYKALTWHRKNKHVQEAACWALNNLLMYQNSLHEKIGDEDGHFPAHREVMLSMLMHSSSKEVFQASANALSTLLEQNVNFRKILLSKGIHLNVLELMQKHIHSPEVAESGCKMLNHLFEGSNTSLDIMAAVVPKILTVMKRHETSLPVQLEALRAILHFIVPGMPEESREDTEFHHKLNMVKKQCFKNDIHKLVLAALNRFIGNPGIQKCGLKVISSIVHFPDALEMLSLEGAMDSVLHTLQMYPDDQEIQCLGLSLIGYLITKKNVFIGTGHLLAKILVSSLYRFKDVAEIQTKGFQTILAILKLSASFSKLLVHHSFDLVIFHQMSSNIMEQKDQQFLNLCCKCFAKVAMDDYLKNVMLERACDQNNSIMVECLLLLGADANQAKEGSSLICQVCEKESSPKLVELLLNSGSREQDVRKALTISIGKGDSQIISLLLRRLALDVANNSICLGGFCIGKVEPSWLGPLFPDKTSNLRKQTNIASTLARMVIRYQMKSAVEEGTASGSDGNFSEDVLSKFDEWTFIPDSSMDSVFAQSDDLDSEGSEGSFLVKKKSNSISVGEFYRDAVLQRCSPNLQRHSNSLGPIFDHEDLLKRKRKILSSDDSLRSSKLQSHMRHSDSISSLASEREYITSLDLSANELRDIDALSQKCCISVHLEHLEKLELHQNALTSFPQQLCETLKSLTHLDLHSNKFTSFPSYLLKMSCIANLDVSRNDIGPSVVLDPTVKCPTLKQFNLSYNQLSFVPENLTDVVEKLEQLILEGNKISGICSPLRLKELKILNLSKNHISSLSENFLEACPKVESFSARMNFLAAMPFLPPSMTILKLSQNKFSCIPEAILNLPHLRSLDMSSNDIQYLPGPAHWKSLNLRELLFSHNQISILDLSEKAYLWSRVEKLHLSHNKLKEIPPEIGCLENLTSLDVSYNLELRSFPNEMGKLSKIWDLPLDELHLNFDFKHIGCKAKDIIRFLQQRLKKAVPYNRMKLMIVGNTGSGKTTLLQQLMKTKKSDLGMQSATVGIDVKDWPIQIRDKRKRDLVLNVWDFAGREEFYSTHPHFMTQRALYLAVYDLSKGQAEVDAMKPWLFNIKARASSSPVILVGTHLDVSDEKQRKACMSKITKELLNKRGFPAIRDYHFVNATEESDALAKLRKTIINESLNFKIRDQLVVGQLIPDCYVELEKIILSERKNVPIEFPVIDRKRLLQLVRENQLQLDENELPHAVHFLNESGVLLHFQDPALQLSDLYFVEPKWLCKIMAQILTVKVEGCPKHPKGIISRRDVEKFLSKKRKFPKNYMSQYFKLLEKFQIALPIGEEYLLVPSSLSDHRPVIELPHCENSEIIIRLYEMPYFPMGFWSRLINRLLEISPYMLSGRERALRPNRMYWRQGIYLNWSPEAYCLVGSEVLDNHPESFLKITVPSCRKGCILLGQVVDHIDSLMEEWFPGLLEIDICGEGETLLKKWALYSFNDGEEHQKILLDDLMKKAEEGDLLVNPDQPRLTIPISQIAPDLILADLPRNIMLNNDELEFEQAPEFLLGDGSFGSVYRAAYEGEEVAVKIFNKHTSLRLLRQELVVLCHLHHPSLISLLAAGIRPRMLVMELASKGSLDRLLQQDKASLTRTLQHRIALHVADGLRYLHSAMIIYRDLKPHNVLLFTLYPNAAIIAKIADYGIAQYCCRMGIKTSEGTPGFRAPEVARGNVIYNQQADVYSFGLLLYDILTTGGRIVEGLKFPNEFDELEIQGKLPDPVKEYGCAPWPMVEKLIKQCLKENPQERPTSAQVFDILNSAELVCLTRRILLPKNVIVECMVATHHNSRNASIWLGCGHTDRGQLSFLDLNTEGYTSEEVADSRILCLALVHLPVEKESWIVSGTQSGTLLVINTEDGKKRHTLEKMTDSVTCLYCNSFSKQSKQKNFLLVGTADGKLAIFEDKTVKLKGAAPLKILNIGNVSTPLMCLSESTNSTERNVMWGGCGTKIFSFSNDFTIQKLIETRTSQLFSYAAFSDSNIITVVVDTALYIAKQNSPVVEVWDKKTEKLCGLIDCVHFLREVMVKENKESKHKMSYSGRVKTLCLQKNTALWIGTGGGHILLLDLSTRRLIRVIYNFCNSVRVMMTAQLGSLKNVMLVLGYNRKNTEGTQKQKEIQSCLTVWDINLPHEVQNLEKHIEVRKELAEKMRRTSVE
T1 sequence (Q5S007 whole entry): as above

`CNC(=O)Cc1nc2cnc3ccc(C#N)cc3c2n1[C@@H]1CCO[C@H](C)C1` [Compound 82, 2-{8-cyano-1-[(2R,4R)-2-methyloxan-4-yl]-1H-imidazo[4,5-c]quinolin-2-yl}-N-methylacetamide]: the concentration for half-maximal inhibition (IC50) (in general, the concentration that inhibits the measured activity by half) in assay [1] stood at 0.83 nM; in assay [2], 81.8 nM.

For `C[C@@H]1C[C@H](n2c(CC(=O)Nc3ncc(C4CC4)cn3)nc3cnc4ccc(C#N)cc4c32)CCO1` [Compound 344, N-(5-cyclopropyl-2-pyrimidinyl){3-[(2R)-2-methyltetrahydro-2H-pyran-4-yl]-12-cyano-3,5,8-triazatricyclo[7.4.0.0^2,6]trideca-1(9),2(6),4,7,10,12-hexaen-4-yl}acetamide], the IC50 was determined as 0.453 nM in assay [1] and 4.11 nM in assay [2].

As for `Cc1ccc(NC(=O)Cc2nc3cnc4ccc(C#N)cc4c3n2[C@@H]2CCO[C@H](C)C2)cn1` [Compound 319, N-(6-methyl-3-pyridyl){3-[(2R,4R)-2-methyltetrahydro-2H-pyran-4-yl]-12-cyano-3,5,8-triazatricyclo[7.4.0.0^2,6]trideca-1(9),2(6),4,7,10,12-hexaen-4-yl}acetamide], the half-maximal inhibitory concentration (IC50) in assay [1] was determined as 0.542 nM; in assay [2] it was 5.93 nM.

Turning to `Cc1ncc(NC(=O)Cc2nc3cnc4ccc(C#N)cc4c3n2[C@@H]2CCO[C@H](C)C2)cn1` [Compound 329, N-(2-methyl-5-pyrimidinyl){3-[(2R,4R)-2-methyltetrahydro-2H-pyran-4-yl]-12-cyano-3,5,8-triazatricyclo[7.4.0.0^2,6]trideca-1(9),2(6),4,7,10,12-hexaen-4-yl}acetamide], the half-inhibitory concentration (IC50) in assay [1] was determined as 0.483 nM; in assay [2], 16.5 nM.

As to `C[C@@H]1C[C@H](n2c(CC(=O)NCc3cccnn3)nc3cnc4ccc(Cl)cc4c32)CCO1` [Compound 148, 2-{8-chloro-1-[(2R,4R)-2-methyloxan-4-yl]-1H-imidazo[4,5-c]quinolin-2-yl}-N-[(pyridazin-3-yl)methyl]acetamide], the concentration for half-maximal inhibition (IC50) in assay [1] came out at 0.376 nM; in assay [2], 4.5 nM.

For the molecule `C[C@@H]1C[C@H](n2c(CC(=O)Nc3ccc(C(F)(F)F)n(C)c3=O)nc3cnc4ccc(C#N)cc4c32)CCO1` [Compound 221, N-[1-methyl-2-oxo-6-(trifluoromethyl)-1,2-dihydro-3-pyridyl]{3-[(2R,4R)-2-methyltetrahydro-2H-pyran-4-yl]-12-cyano-3,5,8-triazatricyclo[7.4.0.0^2,6]trideca-1,4,6,8,10,12-hexaen-4-yl}acetamide], the figures for the IC50 in assay [1] and in assay [2] were 0.526 nM and 5.77 nM, respectively.

With `C[C@@H]1C[C@H](n2c(CC(=O)N[C@H](C)C3CC3)nc3cnc4ccc(C#N)cc4c32)CCO1` [Compound 7, 2-{8-cyano-1-[(2R,4R)-2-methyloxan-4-yl]-1H-imidazo[4,5-c]quinolin-2-yl}-N-[(1R)-1-cyclopropylethyl]acetamide], the results for the IC50 in assay [1] and in assay [2] were 0.794 nM and 47.2 nM, respectively.

As for `C[C@@H]1C[C@H](n2c([C@@H]3CC(=O)N(c4cnn(C)c4)C3)nc3cnc4ccc(C#N)cc4c32)CCO1` [Compound 48, 2-[(3R)-1-(1-methyl-1H-pyrazol-4-yl)-5-oxopyrrolidin-3-yl]-1-[(2R,4R)-2-methyloxan-4-yl]-1H-imidazo[4,5-c]quinoline-8-carbonitrile], the IC50 in assay [1] turned out to be 0.921 nM; in assay [2] it was 110 nM.

For the molecule `Cc1ncnc(C)c1NC(=O)Cc1nc2cnc3ccc(Cl)cc3c2n1[C@@H]1CCO[C@H](C)C1` [Compound 207, N-(4,6-dimethyl-5-pyrimidinyl){3-[(2R,4R)-2-methyltetrahydro-2H-pyran-4-yl]-12-chloro-3,5,8-triazatricyclo[7.4.0.0^2,6]trideca-1,4,6,8,10,12-hexaen-4-yl}acetamide], the values for the 50% inhibitory concentration (IC50) in assay [1] and in assay [2] were 0.333 nM and 7.53 nM, respectively.

Turning to `C[C@@H]1C[C@H](n2c([C@@H]3CCN(S(C)(=O)=O)C3)nc3cnc4ccc(C#N)cc4c32)CCO1` [Compound 38, 2-[(3R)-1-methanesulfonylpyrrolidin-3-yl]-1-[(2R,4R)-2-methyloxan-4-yl]-1H-imidazo[4,5-c]quinoline-8-carbonitrile], the IC50 in assay [1] turned out to be 7.3 nM; in assay [2], 772 nM.

On to `C[C@@H]1C[C@H](n2c(C3CCN(S(C)(=O)=O)CC3)nc3cnc4ccc(C#N)cc4c32)CCO1` [Compound 122, 2-(1-methanesulfonylpiperidin-4-yl)-1-[(2R,4R)-2-methyloxan-4-yl]-1H-imidazo[4,5-c]quinoline-8-carbonitrile], for which the figures for the half-maximal inhibitory concentration (IC50) in assay [1] and in assay [2] were 2.99 nM and 546 nM, respectively.

Consider `C[C@@H]1C[C@H](n2c(CC(=O)N(C)CC(F)(F)F)nc3cnc4ccc(C#N)cc4c32)CCO1` [Compound 81, 2-{8-cyano-1-[(2R,4R)-2-methyloxan-4-yl]-1H-imidazo[4,5-c]quinolin-2-yl}-N-methyl-N-(2,2,2-trifluoroethyl)acetamide], for which the IC50 in assay [1] came to 10.5 nM; in assay [2], 728 nM.

On to `COc1ncc(NC(=O)Cc2nc3cnc4ccc(C#N)cc4c3n2[C@@H]2CCO[C@H](C)C2)c(OC)n1` [Compound 295, N-(2,4-dimethoxy-5-pyrimidinyl){3-[(2R,4R)-2-methyltetrahydro-2H-pyran-4-yl]-12-cyano-3,5,8-triazatricyclo[7.4.0.0^2,6]trideca-1,4,6,8,10,12-hexaen-4-yl}acetamide], for which the IC50 in assay [1] was 0.455 nM; in assay [2], 4.67 nM.

In the case of `Cc1cnc(NC(=O)Cc2nc3cnc4ccc(C#N)cc4c3n2[C@@H]2CCO[C@H](C)C2)cn1` [Compound 315, N-(5-methyl-2-pyrazinyl){3-[(2R,4R)-2-methyltetrahydro-2H-pyran-4-yl]-12-cyano-3,5,8-triazatricyclo[7.4.0.0^2,6]trideca-1(9),2(6),4,7,10,12-hexaen-4-yl}acetamide], the IC50 in assay [1] was found to be 0.471 nM; in assay [2], 2.52 nM.

As for `C[C@@H]1C[C@H](n2c(CC(=O)NC3CCOc4cccnc43)nc3cnc4ccc(Cl)cc4c32)CCO1` (stereo partly drawn) [Compound 362, N-(3,4-dihydro-2H-1-oxa-5-azanaphth-4-yl){3-[(2R,4R)-2-methyltetrahydro-2H-pyran-4-yl]-12-chloro-3,5,8-triazatricyclo[7.4.0.0^2,6]trideca-1(9),2(6),4,7,10,12-hexaen-4-yl}acetamide], the IC50 turned out to be 0.553 nM in assay [1] and 10.5 nM in assay [2].

With `C[C@@H]1C[C@H](n2c(CC(=O)Nc3cnc(C4CC4)nc3)nc3cnc4ccc(C#N)cc4c32)CCO1` [Compound 300, N-(2-cyclopropyl-5-pyrimidinyl){3-[(2R,4R)-2-methyltetrahydro-2H-pyran-4-yl]-12-cyano-3,5,8-triazatricyclo[7.4.0.0^2,6]trideca-1,4,6,8,10,12-hexaen-4-yl}acetamide], the IC50 in assay [1] was 0.382 nM; in assay [2], 10.6 nM.

In the case of `C[C@@H]1C[C@H](n2c(CC3CN(S(C)(=O)=O)C3)nc3cnc4ccc(C#N)cc4c32)CCO1` [Compound 65, 2-[(1-methanesulfonylazetidin-3-yl)methyl]-1-[(2R,4R)-2-methyloxan-4-yl]-1H-imidazo[4,5-c]quinoline-8-carbonitrile], the IC50 in assay [1] was 5.03 nM; in assay [2], 525 nM.

For the molecule `C[C@@H]1C[C@H](n2c(CC(=O)N[C@@H]3C[C@H]3c3cccnc3)nc3cnc4ccc(C#N)cc4c32)CCO1` [Compound 365, N-[(1R,2S)-2-(3-pyridyl)cyclopropyl]{3-[(2R,4R)-2-methyltetrahydro-2H-pyran-4-yl]-12-cyano-3,5,8-triazatricyclo[7.4.0.0^2,6]trideca-1(13),2(6),4,7,9,11-hexaen-4-yl}acetamide], the half-maximal inhibitory concentration (IC50) in assay [1] turned out to be 0.536 nM; in assay [2], 23.3 nM.

As to `Cc1ccnc(C)c1NC(=O)Cc1nc2cnc3ccc(C#N)cc3c2n1[C@@H]1CCO[C@H](C)C1` [Compound 256, N-(2,4-dimethyl-3-pyridyl){3-[(2R,4R)-2-methyltetrahydro-2H-pyran-4-yl]-12-cyano-3,5,8-triazatricyclo[7.4.0.0^2,6]trideca-1,4,6,8,10,12-hexaen-4-yl}acetamide], the IC50 is 0.485 nM in assay [1] and 15.1 nM in assay [2].

For `Cc1cccc(CNC(=O)Cc2nc3cnc4ccc(C#N)cc4c3n2[C@@H]2CCO[C@H](C)C2)n1` [Compound 152, 2-{8-cyano-1-[(2R,4R)-2-methyloxan-4-yl]-1H-imidazo[4,5-c]quinolin-2-yl}-N-[(6-methylpyridin-2-yl)methyl]acetamide], the half-inhibitory concentration (IC50) in assay [1] is 0.318 nM; in assay [2], 3.4 nM.

As for `C[C@@H]1C[C@H](n2c(CC(=O)NCC3(CO)CC3)nc3cnc4ccc(C#N)cc4c32)CCO1` [Compound 242, N-[1-(hydroxymethyl)cyclopropyl]methyl{3-[(2R,4R)-2-methyltetrahydro-2H-pyran-4-yl]-12-cyano-3,5,8-triazatricyclo[7.4.0.0^2,6]trideca-1(9),2(6),4,7,10,12-hexaen-4-yl}acetamide], the values for the IC50 in assay [1] and in assay [2] were 0.69 nM and 106 nM, respectively.

Turning to `C[C@@H]1C[C@H](n2c(C3CC(=O)N([C@@H](C)C4CC4)C3)nc3cnc4ccc(C#N)cc4c32)CCO1` (stereo partly drawn) [Compound 35, 2-{1-[(1S)-1-cyclopropylethyl]-5-oxopyrrolidin-3-yl}-1-[(2R,4R)-2-methyloxan-4-yl]-1H-imidazo[4,5-c]quinoline-8-carbonitrile], the IC50 was found to be 2.98 nM in assay [1] and 179 nM in assay [2].

For `C[C@@H]1C[C@H](n2c(CC(=O)NC3CCOCC3)nc3cnc4ccc(Cl)cc4c32)CCO1` [Compound 192, 2-{8-chloro-1-[(2R,4R)-2-methyloxan-4-yl]-1H-imidazo[4,5-c]quinolin-2-yl}-N-(oxan-4-yl)acetamide], the values for the IC50 in assay [1] and in assay [2] were 0.385 nM and 13.3 nM, respectively.
